Reference: PMC5672791 (Journal of medicinal chemistry, 2015)
Where two headings read alike, the source gives them in different places. Where a SMILES comes first, the peptide text is derived from it. Bridges are numbered along the chain shown (N, C = ends). Where no end group is shown, it is not given here. [ ]: non-standard residue; d: D form. Bip = N[C@@H](Cc1ccc(-c2ccccc2)cc1)C(=O)O

Key:
mMC1R [1] = biological target: T1, mMC1R (Mus musculus, UniProt Q01727); test: cAMP based β-galactosidase reporter assay, agonist activity at mMC1R; assay type: cell-based
mMC4R [2] = biological target: T2, mMC4R (Mus musculus, UniProt P56450); assay type: cell-based
mMC3R [3] = biological target: T3, mMC3R (Mus musculus, UniProt P33033); assay type: cell-based
mMC3R [4] = biological target: T3, mMC3R; details: cited from earlier work
mMC4R [5] = biological target: T2, mMC4R; details: cited from earlier work; for Ki: read-out: mMC4R Ki, Ki=10^-pA2, previously reported values
mMC1R [6] = biological target: T1, mMC1R; details: read-out: mMC1R Agonist EC50; previously reported values; cited from earlier work
mMC5R = mMC5R (Mus musculus, UniProt P41149); details: read-out: mMC5R Agonist EC50; previously reported values; cited from earlier work
mMC3R (Mus musculus) = mMC3R (Mus musculus) (UniProt P33033); test: Schild analysis; details: cited from earlier work
mMC4R (Mus musculus) = mMC4R (Mus musculus) (UniProt P56450); test: Schild analysis; details: cited from earlier work
mMC4R [7] = biological target: T4, mMC4R (Mus musculus, UniProt P56450); test: Schild analysis
T4 chain: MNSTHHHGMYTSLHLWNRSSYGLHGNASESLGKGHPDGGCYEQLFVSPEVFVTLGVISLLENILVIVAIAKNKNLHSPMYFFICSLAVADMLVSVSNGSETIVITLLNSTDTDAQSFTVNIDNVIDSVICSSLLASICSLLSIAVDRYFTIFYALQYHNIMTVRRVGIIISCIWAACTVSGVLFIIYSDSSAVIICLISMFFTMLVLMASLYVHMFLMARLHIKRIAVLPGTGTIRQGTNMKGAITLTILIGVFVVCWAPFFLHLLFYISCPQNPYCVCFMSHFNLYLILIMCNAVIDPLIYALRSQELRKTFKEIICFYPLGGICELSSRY

mMC3R [8] = biological target: T5, mMC3R (Mus musculus, UniProt P33033); test: Schild analysis
T5 chain: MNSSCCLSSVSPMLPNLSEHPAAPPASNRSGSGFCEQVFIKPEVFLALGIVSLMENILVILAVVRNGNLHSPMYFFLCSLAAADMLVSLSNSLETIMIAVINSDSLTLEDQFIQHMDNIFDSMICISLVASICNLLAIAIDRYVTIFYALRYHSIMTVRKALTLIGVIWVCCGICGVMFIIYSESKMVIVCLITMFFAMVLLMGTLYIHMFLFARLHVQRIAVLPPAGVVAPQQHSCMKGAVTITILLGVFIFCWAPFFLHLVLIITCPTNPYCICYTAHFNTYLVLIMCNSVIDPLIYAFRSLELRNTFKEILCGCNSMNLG

Chain of mMC5R (P41149 whole entry): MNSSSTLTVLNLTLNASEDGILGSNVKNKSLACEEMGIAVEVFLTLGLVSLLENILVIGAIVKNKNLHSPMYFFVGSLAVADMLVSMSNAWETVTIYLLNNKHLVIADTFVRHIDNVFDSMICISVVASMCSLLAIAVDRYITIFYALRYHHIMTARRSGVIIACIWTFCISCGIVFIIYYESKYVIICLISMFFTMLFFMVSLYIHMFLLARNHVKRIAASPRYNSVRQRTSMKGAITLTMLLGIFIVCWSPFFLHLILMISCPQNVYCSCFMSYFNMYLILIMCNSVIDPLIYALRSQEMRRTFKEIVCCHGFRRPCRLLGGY
T1 sequence (Q01727 whole entry): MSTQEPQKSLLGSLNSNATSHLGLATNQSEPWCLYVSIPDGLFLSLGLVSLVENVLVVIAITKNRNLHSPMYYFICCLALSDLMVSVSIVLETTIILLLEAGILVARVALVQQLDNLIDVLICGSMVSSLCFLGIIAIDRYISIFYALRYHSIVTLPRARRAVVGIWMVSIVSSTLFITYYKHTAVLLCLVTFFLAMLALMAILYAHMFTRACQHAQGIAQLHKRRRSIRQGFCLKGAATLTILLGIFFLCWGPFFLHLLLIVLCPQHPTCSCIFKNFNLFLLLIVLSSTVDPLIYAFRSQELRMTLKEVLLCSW

C[C@@H]1NC(=O)[C@H](CC(N)=O)NC(=O)[C@H](Cc2ccccc2)NC(=O)[C@H](Cc2ccc(-c3ccccc3)cc2)NC(=O)[C@H](CCCNC(=N)N)NC(=O)[C@@H]2CCCN2C(=O)[C@H]2CCCN2C(=O)[C@H](Cc2ccccc2)NC1=O [Peptide 7, c[Pro-Arg-Bip-Phe-Asn-Ala-Phe-DPro]] (cyclo(R[Bip]FNAF[dP]P))
fold more potent agonist at the mMC1R compared to 6 (mMC1R [1]): 5 fold | fold decreased antagonist potency at the mMC4R compared to 6 (mMC4R [2]): 8 fold

C[C@@H]1NC(=O)[C@H](CC(N)=O)NC(=O)[C@H](Cc2ccccc2)NC(=O)[C@@H]2Cc3ccccc3CN2C(=O)[C@H](CCCNC(=N)N)NC(=O)[C@@H]2CCCN2C(=O)[C@H]2CCCN2C(=O)[C@H](Cc2ccccc2)NC1=O [Peptide 8, c[Pro-Arg-Tic-Phe-Asn-Ala-Phe-DPro]]
no activity at the mMC3R up to (concentration) (mMC3R [3]): > 100 µM | no activity at the mMC4R up to (concentration) (mMC4R [2]): > 100 µM

C[C@@H]1NC(=O)[C@H](CC(N)=O)NC(=O)[C@H](Cc2ccccc2)NC(=O)[C@H](CCc2ccccc2)NC(=O)[C@H](CCCNC(=N)N)NC(=O)[C@@H]2CCCN2C(=O)[C@H]2CCCN2C(=O)[C@H](Cc2ccccc2)NC1=O [Peptide 10, c[Pro-Arg-hPhe-Phe-Asn-Ala-Phe-DPro]]
fold decreased antagonist potency at the mMC4R compared to 6 (mMC4R [2]): 5 fold

C[C@@H]1NC(=O)[C@H](CC(N)=O)NC(=O)[C@H](Cc2ccccc2)NC(=O)[C@H](Cc2ccc3ccccc3c2)NC(=O)[C@H](CCCNC(=N)N)NC(=O)[C@@H]2CCCN2C(=O)[C@H]2CCCN2C(=O)[C@H](Cc2ccccc2)NC1=O [Peptide 13, c [Pro-Arg-Nal(2′)-Phe-Asn-Ala-Phe-DPro]]
fold decreased antagonist potency at the mMC4R compared to 6 (mMC4R [2]): 5 fold

C[C@@H]1NC(=O)[C@H](CC(N)=O)NC(=O)[C@H](Cc2ccc(-c3ccccc3)cc2)NC(=O)[C@H](Cc2ccccc2)NC(=O)[C@H](CCCNC(=N)N)NC(=O)[C@@H]2CCCN2C(=O)[C@H]2CCCN2C(=O)[C@H](Cc2ccccc2)NC1=O [Peptide 14, c[Pro-Arg-Phe-Bip-Asn-Ala-Phe-DPro]]
fold more potent agonist at the mMC1R compared to 6 (mMC1R [1]): 10 fold | no activity at the mMC3R up to (concentration) (mMC3R [3]): > 100 µM | fold decreased antagonist potency at the mMC4R compared to 6 (mMC4R [2]): 8 fold

C[C@@H]1NC(=O)[C@H](CC(N)=O)NC(=O)[C@@H]2Cc3ccccc3CN2C(=O)[C@H](Cc2ccccc2)NC(=O)[C@H](CCCNC(=N)N)NC(=O)[C@@H]2CCCN2C(=O)[C@H]2CCCN2C(=O)[C@H](Cc2ccccc2)NC1=O [Peptide 15, c[Pro-Arg-Phe-Tic-Asn-Ala-Phe-DPro]]
no activity at the mMC3R up to (concentration) (mMC3R [3]): > 100 µM | no activity at the mMC4R up to (concentration) (mMC4R [2]): > 100 µM

C[C@@H]1NC(=O)[C@H](CC(N)=O)NC(=O)[C@H](c2ccccc2)NC(=O)[C@H](Cc2ccccc2)NC(=O)[C@H](CCCNC(=N)N)NC(=O)[C@@H]2CCCN2C(=O)[C@H]2CCCN2C(=O)[C@H](Cc2ccccc2)NC1=O [Peptide 16, c[Pro-Arg-Phe-Phg-Asn-Ala-Phe-DPro]]
fold decreased potency at the mMC1R compared to 6 (mMC1R [1]): 4 fold | no activity at the mMC3R up to (concentration) (mMC3R [3]): > 100 µM | fold decreased antagonist potency at the mMC4R compared to 6 (mMC4R [2]): 65 fold

C[C@@H]1NC(=O)[C@H](CC(N)=O)NC(=O)[C@H](Cc2cccc3ccccc23)NC(=O)[C@H](Cc2ccccc2)NC(=O)[C@H](CCCNC(=N)N)NC(=O)[C@@H]2CCCN2C(=O)[C@H]2CCCN2C(=O)[C@H](Cc2ccccc2)NC1=O [Peptide 19, c[Pro-Arg-Phe-Nal(1′)-Asn-Ala-Phe-DPro]]
fold decreased antagonist potency at the mMC3R compared to 6 (mMC3R [3]; compared to 6): 6 fold

C[C@@H]1NC(=O)[C@H](CC(N)=O)NC(=O)[C@H](Cc2ccc3ccccc3c2)NC(=O)[C@H](Cc2ccccc2)NC(=O)[C@H](CCCNC(=N)N)NC(=O)[C@@H]2CCCN2C(=O)[C@H]2CCCN2C(=O)[C@H](Cc2ccccc2)NC1=O [Peptide 20, c[Pro-Arg-Phe-Nal(2′)-Asn-Ala-Phe-DPro]]
no activity at the mMC3R up to (concentration) (mMC3R [3]): > 100 µM

C[C@@H]1NC(=O)CNC(=O)[C@H](Cc2ccccc2)NC(=O)[C@H](Cc2ccccc2)NC(=O)[C@H](CCCNC(=N)N)NC(=O)[C@@H]2CCCN2C(=O)[C@H]2CCCN2C(=O)[C@H](Cc2ccccc2)NC1=O [Peptide 21, c[Pro-Arg-Phe-Phe-Gly-Ala-Phe-DPro]]
fold increased antagonist potency at the mMC3R compared to 6 (mMC3R [3]; compared to 6): 16 fold | fold increased antagonist potency at the mMC4R compared to 6 (mMC4R [2]): 5 fold

C[C@@H]1NC(=O)[C@H](CCCCN)NC(=O)[C@H](Cc2ccccc2)NC(=O)[C@H](Cc2ccccc2)NC(=O)[C@H](CCCNC(=N)N)NC(=O)[C@@H]2CCCN2C(=O)[C@H]2CCCN2C(=O)[C@H](Cc2ccccc2)NC1=O [Peptide 25, c[Pro-Arg-Phe-Phe-Lys-Ala-Phe-DPro]]
fold increased antagonist potency at the mMC4R compared to 6 (mMC4R [2]): 4 fold

C[C@@H]1NC(=O)[C@H](CCCNC(=N)N)NC(=O)[C@H](Cc2ccccc2)NC(=O)[C@H](Cc2ccccc2)NC(=O)[C@H](CCCNC(=N)N)NC(=O)[C@@H]2CCCN2C(=O)[C@H]2CCCN2C(=O)[C@H](Cc2ccccc2)NC1=O [Peptide 26, c[Pro-Arg-Phe-Phe-Arg-Ala-Phe-DPro]] (cyclo(RFFRAF[dP]P))
fold increased antagonist potency at the mMC4R compared to 6 (mMC4R [2]): 5 fold

TAYCRFFNAFCYAR-NH2 (disulfide 4-11) [hAGRP(107-120)]
mMC3R antagonist pA2 (mMC3R [4]): 6.1 | mMC4R antagonist pA2 (mMC4R [5]): 6.6

Tyr-c[Cys-Arg-Phe-Phe-Asn-Ala-Phe-Cys]-Tyr (YCRFFNAFCY; bridge 2-9; not fully specified (bridges)) [hAGRP (109-118)]
EC50 (mMC1R [6]): 5100 ± 3000 nM | Ki (mMC4R [5]): 160 nM | EC50 (mMC5R): > 100000 nM

YCRFFNAFCY (disulfide 2-9) [hAGRP (109-118)]
mMC4R antagonist pA2 (mMC4R [5]): 6.8 | mMC4R antagonist pA2 (mMC4R [5]; previously reported values): 6.8±0.2

hAGRP (87–132): C-terminal domain of human Agouti-related protein, stabilized by five disulfide bonds
EC50 (mMC1R [6]): > 100000 nM | mMC3R antagonist pA2 (mMC3R [4]): 8.9 | mMC3R antagonist pA2 (mMC3R [4]; previously reported values): 8.9±0.2 | mMC4R antagonist pA2 (mMC4R [5]): 9.4 | mMC4R antagonist pA2 (mMC4R [5]; previously reported values): 9.4±1.0 | Ki (mMC4R [5]): 0.4 nM | EC50 (mMC5R): > 100000 nM

hAGRP(87-132) 87-132 (from UniProt O00253)
Ki (mMC3R (Mus musculus)): 1.3 nM | Ki (mMC4R (Mus musculus)): 0.4 nM

hAGRP(109-118)
Ki (mMC4R (Mus musculus)): 160 nM

miniAGRP (87-120): engineered minimized derivative of AGRP(87-132) with 4 disulfide bonds and the C-terminal 12 residues removed (CVRLHESCLGQQVPCCDPAATCYCRFFNAFCYCR)
EC50 (mMC1R [6]): > 100000 nM | EC50 (mMC5R): > 100000 nM

miniAGRP(87-120) 87-120 (from UniProt O00253)
Ki (mMC3R (Mus musculus)): 7.9 nM | Ki (mMC4R (Mus musculus)): 3.2 nM

cyclo(PRFFKAF[dP]) [peptide 25]
Ki (mMC4R [7]): 5 nM | Ki (mMC3R [8]): 100 nM

cyclo(PRFFRAF[dP]) [peptide 26]
Ki (mMC4R [7]): 4 nM | Ki (mMC3R [8]): 200 nM

cyclo(PRFFGAF[dP]) [peptide 21]
Ki (mMC4R [7]): 4 nM

B1: peptide 5 (peptide)
chain: cyclo(PYTRFFNAFTY[dP])
SMILES: C[C@@H]1NC(=O)[C@H](CC(N)=O)NC(=O)[C@H](Cc2ccccc2)NC(=O)[C@H](Cc2ccccc2)NC(=O)[C@H](CCCNC(=N)N)NC(=O)[C@H]([C@@H](C)O)NC(=O)[C@H](Cc2ccc(O)cc2)NC(=O)[C@@H]2CCCN2C(=O)[C@H]2CCCN2C(=O)[C@H](Cc2ccc(O)cc2)NC(=O)[C@H]([C@@H](C)O)NC(=O)[C@H](Cc2ccccc2)NC1=O
Ki (mMC3R [8]): 1300 nM
